Entries after “also recorded” stand apart in the source; their conditions may differ.

One assay has as its system fungal tyrosinase. The assay can be described thus: Target Binding affinity test for tyrosinase (UPLC-MS of bound ligands). As to conditions: for Relative affinity (RA) for tyrosinase: ligands in non-stimulated M. alba root extract, moracenin B = reference ligand. The source says:
It is based on the principle of bringing the ligands and the target into contact in the liquid phase so that the ligands that have the greatest affinity with the target bind to it, elimination of the ligands that are not fixed, separation of the complexes in order to recover the ligands which have been fixed, then quantification of the latter. In a first step of the method, the extract and the target are mixed. The compounds of the extract compete for access to the binding sites of the target. The strongest compounds displace the weakest and are retained more effectively by the target. […] A reference sample was also prepared by diluting the sample to be analyzed 10-fold in a solution of water and a quarter of the volume of acetonitrile. […] Pre-conditioning step-Wells with a filtering membrane were pre-conditioned with a volume of 500 μL of an 85% solution of ammonium acetate and 15% of ethanol which was passed through the membrane by centrifuging at 14000 g for 60 seconds. 2. […] 3. Washing step-The mixture of the enzyme and the sample to be analyzed was deposited in a well that had been pre-conditioned in the pre-conditioning step, then centrifuged at 14000 g until most of the solvent had been eliminated. […] This procedure was repeated three times and eliminated all of the compounds that were not bound to the enzyme. 4. Separation step-The enzyme-ligand complexes retained in the filter were re-suspended in a volume of 10 μL of ultra-pure water, then mixed with a volume of 40 μL of acetonitrile in order to denature and precipitate the enzyme and, at the same time, to liberate the ligands. The mixture was centrifuged at 21000 g for 10 min in order to separate the precipitate from the supernatant. 5. Analysis step-Said supernatant was analyzed by liquid phase chromatography coupled to a mass spectrometer, also known by the acronym UPLC-MS. The reference sample was also analyzed in the same manner, using the same analytical conditions. The UPLC-MS analysis was carried out in accordance with the protocol described in Example 1. The chromatograms obtained are presented in FIGS. 3A and 3B and represent a signal intensity as a function of retention time in a column. […] Each peak is associated with one of the ligands present in the analyzed extract. The quantity associated with each ligand corresponds to the area of the peak. […] For each ligand, an affinity ratio, RACEi, was calculated as follows: [formula] where: NF is a normalization factor; […] the intensity of the analytical signal for the ligand CEi in the reference sample; ISeq,REF is the intensity of the analytical signal for the reference ligand REF (here, moracenin B) in the reference sample; […] the intensity of the analytical signal for the ligand CEi in the treated solution (the sample to be analyzed after steps 2 to 4 for binding and separation of the ligands) for the detached ligands; ISTB,REF is the intensity of the analytical signal for the reference ligand REF (here, moracenin B) in the treated solution (the sample to be analyzed after steps 2 to 4 for binding and separation of the ligands) for the detached ligands; RA, CEi is the relative affinity ratio (RA), representing an affinity of the ligand CEi for the target. The value of the ratio increases with affinity.

Assay [1] concerns the target T1, hyaluronidase originating from bull testicles (type IV-S) (Bos taurus, UniProt Q2YDK3).
T1 construct: hyaluronidase originating from bull testicles (type IV-S); from tissue; host or cells: bull testicles
T1 sequence (Q2YDK3 36-553): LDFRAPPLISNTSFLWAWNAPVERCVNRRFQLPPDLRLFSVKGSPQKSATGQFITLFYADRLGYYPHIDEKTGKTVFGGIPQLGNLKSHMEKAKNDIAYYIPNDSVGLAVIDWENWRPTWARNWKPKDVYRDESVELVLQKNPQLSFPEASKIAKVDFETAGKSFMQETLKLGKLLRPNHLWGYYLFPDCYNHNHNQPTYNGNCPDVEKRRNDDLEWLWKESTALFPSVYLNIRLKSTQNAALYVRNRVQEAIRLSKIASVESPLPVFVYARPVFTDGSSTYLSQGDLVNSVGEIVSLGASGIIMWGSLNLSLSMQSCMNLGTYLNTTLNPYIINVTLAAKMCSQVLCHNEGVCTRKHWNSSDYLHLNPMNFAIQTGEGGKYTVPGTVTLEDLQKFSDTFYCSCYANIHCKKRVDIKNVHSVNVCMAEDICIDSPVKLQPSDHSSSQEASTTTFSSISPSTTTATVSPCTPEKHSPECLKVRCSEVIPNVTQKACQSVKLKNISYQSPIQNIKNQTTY
The assay can be described thus: Anti-hyaluronidase inhibiting activity, hyaluronic acid as substrate, precipitation with acidic BSA. The format is biochemical. On the procedure:
A root extract of Morus Alba was prepared in accordance with the protocol described in Example 5. Hyaluronidase catalyzes the hydrolysis of hyaluronic acids into monosaccharides, disaccharides and short oligosaccharides. The measurement of the anti-hyaluronidase inhibiting activity was carried out using hyaluronic acid (HA) as a substrate in order to follow its reduction during the enzymatic reaction, the slope of the reduction of the concentration of HA during the reaction being proportional to the enzymatic activity.
The concentration of HA was measured in accordance with the following principle: in the presence of an acidic solution of bovine serum albumin, HA precipitates. Thus, in the case of the presence of HA, a precipitate is formed and in the case of complete hydrolysis of the HA, no precipitate is observed. Thus, the quantity of precipitation is proportion& to the HA content. […]
In order to follow the enzymatic degradation of the HA, a volume of 50 μl of RM was removed every 15 minutes, mixed with a volume of 250 μL of the solution of acidic BSA (acidic solution of bovine serum albumin: 24 mM sodium acetate, 79 mM acetic add and 0.1% (w/v) bovine serum albumin, pH 3.75) then incubated for 10 min at ambient temperature. The quantity of precipitate formed was then measured using a plate reader (diffusion of light at 600 nm). […]

For `CC(C)=CCc1c(O)ccc(C(=O)[C@@H]2CC(C)=C[C@H](c3c(O)cc(O)c4c(=O)c(CC=C(C)C)c(-c5ccc(O)cc5O)oc34)[C@H]2c2ccc(O)cc2O)c1O` [Moracenin A, moracenin A], the “Relative affinity (RA) for tyrosinase” value in the assay with fungal tyrosinase is given as 5.1. Further, the inhibition (as a rule, the share of the control response that was lost under treatment) at 10 µM in assay [1] worked out at 55.1%. In the case of `CC(C)=CCc1c(-c2ccc(O)cc2O)oc2c([C@H]3C=C(C)C[C@H](C(=O)c4ccc(O)cc4O)[C@@H]3c3ccc(O)cc3O)c(O)cc(O)c2c1=O` [Moracenin B, moracenin B], the “Relative affinity (RA) for tyrosinase” value in the assay with fungal tyrosinase is listed as 1.0. `CC(C)=CCc1c(O)ccc(C(=O)C2C(c3ccc(O)cc3O)CC3(C)CC2c2c(O)cc(-c4cc5ccc(O)cc5o4)cc2O3)c1O` (centres unmarked) [Wittiorumin F, wittiorumin F]: the “Relative affinity (RA) for tyrosinase” value with fungal tyrosinase was found to be 15.5. Also, in the assay with fungal tyrosinase (peak areas of FIG. 3B / relative affinities), the “affinity for tyrosinase compared with the other compounds of the extract (in words)” value is “greater affinity; also recorded: higher affinity”.

The values above are taken from US11311593B2, “Root extracts from plants of the Morus genus and uses of same” (PLANT ADVANCED TECHNOLOGIES PAT, priority 2017, dated 2022).
